Measurements: PMC10740499, “Benzodioxane–Benzamides as FtsZ Inhibitors: Effects of Linker’s Functionalization on Gram-Positive Antimicrobial Activity” (Antibiotics, 2023)
In brackets after ≈: the same amount, converted by molar mass. Several values for one entry are separate records, joined by “and”; a condition that tells them apart may be missing. Equal values may be shown once. Read-outs that look alike come from different tables or passages of the source.

Tests used:
[1] = tested on: methicillin-sensitive Staphylococcus aureus (MSSA); conditions: cited from earlier work
[2] = tested on: methicillin-resistant S. aureus (MRSA); conditions: cited from earlier work
[3] = tested on: B. subtilis strain WM5126; test: Spot viability assay on solid medium; format: cell-based, Bacillus subtilis; conditions: for growth on solid medium at 6 µg/mL: 6 µg/mL in LB agar; for concentration able to kill on solid medium: spot dilutions on LB agar; for colony viability on solid medium, in words: more potent compounds, Figure 4A
Source text: (§1) We further evaluated the most promising compounds on B. subtilis, a model Gram-positive species used previously in evaluating other benzamides, including by our research group. The B. subtilis strain WM5126 expresses a xylose-inducible GFP-tagged ZapA protein. […] We first tested the effects of the compounds on colony viability on solid medium (Figure 4). […] MIC values from microdilution experiments, shown in the right column in Figure 4, largely mirrored the spot viability data.
(§2) The B. subtilis strain used was WM5126 (JH642 amyE::Pxyl-gfp-zapA). For spot viability assays on plates, compounds were diluted from DMSO stocks into molten LB agar and mixed well before solidifying. To assess viability, cells were grown until the early log phase, and then 10-fold serial dilutions of the culture in LB were spotted onto LB agar plates containing the indicated final concentration of the compounds. The plates were incubated overnight at 30 °C and photographed. Microdilution assays to obtain MICs were performed essentially as described for E. coli.

MDRSA 11.7 = test: MIC, broth dilution, MDRSA 11.7; format: cell-based, Staphylococcus aureus; conditions: MDRSA 11.7 clinical isolate
Source text: (§3) As described in our previous work, we evaluated all the compounds mentioned above on different S. aureus strains. We tested on both methicillin-sensitive S. aureus (MSSA, ATCC29213) and two clinical isolates of S. aureus showing multi-drug resistance (MDRSA). […] We analyzed the MICs and, if the antibacterial activity was promising, we also determined the percentage of cytotoxicity using the MTT assay on human MRC-5 cells and reported it as TD90. The results of antibacterial properties of all of the synthesized derivatives are shown in Table 1, and they are compared with their reference compounds FZ14, FZ88, and FZ100.
(§4) The detailed protocol is identical to what was previously reported. Briefly, the antimicrobial testing of compounds followed the Clinical and Laboratory Standards Institute and European Committee for Antimicrobial Susceptibility Testing guidelines. A bacterial suspension equivalent to 0.5 McFarland turbidity standard was diluted in cation-adjusted Mueller Hinton broth to prepare a fresh bacterial culture of 10^5 CFU/mL. Compounds dissolved in DMSO were combined with the bacteria and incubated for 20 h at 35 °C. MIC values were determined visually as the lowest compound dilution with no turbidity. MICs were determined against methicillin-sensitive and methicillin-resistant S. aureus strains (11.7 and 12.1). Every assay was performed in triplicate, and for each series of experiments, both positive (tetracycline) and negative (no compounds) controls were included.

MDRSA 12.1 = test: MIC, broth dilution, MDRSA 12.1; format: cell-based, Staphylococcus aureus; conditions: MDRSA 12.1 clinical isolate
Source text: as §3, §4

[4] = tested on: methicillin-sensitive S. aureus (MSSA, ATCC29213); test: MIC, broth dilution, MSSA ATCC 29213; format: cell-based, Staphylococcus aureus
Source text: as §3
Gram-positive methicillin-sensitive Staphylococcus aureus (MSSA, ATCC 29213) was grown in Luria–Bertani broth (LB), as already described in our papers.
as §4

[5] = tested on: B. subtilis strain WM5126; test: MIC from broth microdilution; format: cell-based, Bacillus subtilis
Source text: as §1, §2

human MRC-5 cells [6] = test: MTT cytotoxicity assay; format: cell-based; conditions: MRC-5, MTT assay
Source text: as §3
Normal human lung fibroblasts (MRC-5) were grown in Dulbecco’s Modified Eagle’s medium (DMEM) supplemented with 10% heat-inactivated fetal calf serum (FCS), 100 U/mL penicillin, and […] streptomycin.
Compounds showing promising antibacterial activity were serially diluted in DMEM and tested for cytotoxicity on MRC-5 cells using the MTT assay (Sigma, St Louis, MO, USA), following the same protocol we previously reported.

human MRC-5 cells [7] = tested on: human MRC-5 cells; parameters: method as in PMID 33920895; conditions: in words; cited from earlier work
B. subtilis = tested on: B. subtilis; parameters: method as in PMID 33920895; conditions: cited from earlier work
[8] = tested on: FtsZ rings in live B. subtilis WM 5126 cells expressing GFP-ZapA; test: GFP-ZapA fluorescence microscopy of FtsZ assembly; format: cell-based, Bacillus subtilis; conditions: 0.3 µg/mL (0.8 µM), 90 min
Protocol: To test if the differential effects of FZ116 and FZ117 enantiomers could be detected as FtsZ assembly changes in B. subtilis cells, we visualized GFP-ZapA patterns after growth in inhibitory concentrations of FZ116 and FZ117 (0.3 µg/mL or 0.8 µM). Cells grown with no added compound grew as typical single bacilli and short chains, with well- defined Z rings clearly visible (Figure 5, left panel, single yellow arrows). […] This conversion of FtsZ rings into a speckle pattern was observed previously, both with FZ100 [14] and with the original benzamide derivatives.
For fluorescence microscopy, overnight cultures of WM5126 were grown at 33 °C (after 1:200 dilution overnight and addition of 0.1% xylose to induce expression of GFP-ZapA) for ~2 h until reaching an OD600 of ~0.2 and then treated with no drug or with compounds FZ116 or FZ117 diluted in water to a final concentration of 0.3 µg/mL (0.8 µM) from stock solutions of 30 mg/mL in DMSO. After the addition of the compounds, the cultures were grown for 90 min while shaking at 33 °C prior to spotting on a thin layer of 1% agarose in phosphate-buffered saline. Cells were imaged with an Olympus BX100 fitted with a 100 × Plan Apochromat objective (N.A. 1.4) and a GFP filter set (Chroma). Images were acquired with CellSens Dimension version 2 software (Evident Corporation, Tokyo, Japan).

[9] = MSSA ATCC 29213, 20 h at 35 °C, read-out: MIC
[10] = as repeated in Table S1 beside the docking ranges, read-out: MIC vs S. aureus
[11] = Bacillus subtilis, value in brackets
[12] = Staphylococcus aureus, 20 h, MSSA ATCC 29213, 20 h at 35 °C, read-out: MIC
[13] = Staphylococcus aureus, read-out: MIC vs S. aureus

| Compound | MIC ([5]; Bacillus subtilis) | MIC [5, 11] | MIC (MDRSA 11.7; Staphylococcus aureus) | MIC (MDRSA 12.1; Staphylococcus aureus) | MIC [4, 12] | MIC [4, 13] | TD90 (human MRC-5 cells [6]) | other results |
| --- | --- | --- | --- | --- | --- | --- | --- | --- |
| NC(=O)c1c(F)ccc(OCc2nc3cc(Cl)cnc3s2)c1F [PC190723] |  |  |  |  |  |  |  | MIC [1]: 1 µg/mL (≈ 2.81 µM); MIC [2]: 1 µg/mL (≈ 2.81 µM) |
| CC(COc1ccc(F)c(C(N)=O)c1F)C1COc2ccccc2O1 (stereo not drawn) [FZ98, 3-(2-(1,4-benzodioxan-2-yl)-1-propyloxy)-2,6-difluorobenzamide] | 15 µg/mL | 42 µM |  |  |  |  |  | growth on solid medium at 6 µg/mL [3]: still permitted growth; MIC (MDRSA 11.7): 91.6 µM (≈ 32 µg/mL); MIC (MDRSA 12.1): 91.6 µM (≈ 32 µg/mL); MIC [4, 9]: 91.6 µM (≈ 32 µg/mL); MIC [4, 10]: 91.6 µM (≈ 32 µg/mL) |
| NC(=O)c1c(F)ccc(OC[C@@H](O)[C@H]2COc3ccccc3O2)c1F (relative stereo) [FZ113] | 15 µg/mL | 42 µM | 364 µM (≈ 128 µg/mL) | 364 µM (≈ 128 µg/mL) | 364 µM (≈ 128 µg/mL) | 364 µM (≈ 128 µg/mL) |  | growth on solid medium at 6 µg/mL [3]: still permitted growth |
| NC(=O)c1c(F)ccc(OCCC2COc3ccccc3O2)c1F (stereo not drawn) [FZ88, reference compound] |  |  | 14.9 µM (≈ 5 µg/mL) | 14.9 µM (≈ 5 µg/mL) | 14.9 µM (≈ 5 µg/mL) |  | 226 µM |  |
| NC(=O)c1c(F)ccc(OCCC2COc3cc4c(cc3O2)CCCC4)c1F (stereo not drawn) [FZ100] |  |  | 0.25 µM (≈ 0.0973 µg/mL) | 0.25 µM (≈ 0.0973 µg/mL) | 0.25 µM (≈ 0.0973 µg/mL) |  | 2054 µM | cytotoxicity towards human MRC-5 cells (human MRC-5 cells [7]): low to no cytotoxicity; MIC (B. subtilis): under 0.1 μg/mL; MIC [1]: 0.1 μg/mL and 0.25 μM; MIC [2]: 0.1 μg/mL and 0.25 μM |
| C[C@H](Oc1ccc(F)c(C(N)=O)c1F)[C@H]1COc2ccccc2O1 (relative stereo) [FZ104, 3-[1-(1,4-benzodioxan-2yl)ethyl-1-oxy]-2,6-difluorobenzamide] | 3.75 µg/mL | 11 µM | 23.9 µM (≈ 8.01 µg/mL) | 23.9 µM (≈ 8.01 µg/mL) | 23.9 µM (≈ 8.01 µg/mL) | 23.9 µM (≈ 8.01 µg/mL) |  | concentration able to kill on solid medium ([3]; overnight 30 °C): 6 µg/mL; concentration able to kill on solid medium ([3]; value in brackets): ~ 20 µM |
| NC(=O)c1c(F)ccc(OCC2COc3ccccc3O2)c1F (stereo not drawn) [FZ14, reference compound] |  |  | 15.6 µM (≈ 5.01 µg/mL) | 15.6 µM (≈ 5.01 µg/mL) | 15.6 µM (≈ 5.01 µg/mL) |  | 49.8 µM |  |
| CC(COc1ccc(F)c(C(N)=O)c1F)C1COc2cc3c(cc2O1)CCCC3 (stereo not drawn) [FZ119, Threo 3-(2-(5,6,7,8-Tetrahydro-1,4-naphthodioxan-2-yl)prop-1-yloxy)-2,6-difluorobenzamide] |  |  |  |  |  |  | 247.9 µM | colony viability on solid medium, in words [3]: killed B. subtilis at the lowest doses; MIC (MDRSA 11.7): 9.9 µM (≈ 3.99 µg/mL); MIC (MDRSA 12.1): 9.9 µM (≈ 3.99 µg/mL); MIC [4, 9]: 9.9 µM (≈ 3.99 µg/mL); MIC [4, 10]: 9.9 µM (≈ 3.99 µg/mL); MIC (microdilution) [5]: < 0.24 µg/mL; MIC ([5]; value in brackets): < 0.6 µM |
| CC(COc1ccc(F)c(C(N)=O)c1F)C1COc2ccccc2O1 (stereo not drawn) [FZ97, 3-(2-(1,4-benzodioxan-2-yl)-1-propyloxy)-2,6-difluorobenzamide] |  |  |  |  |  |  |  | MIC (MDRSA 11.7): 366.4 µM (≈ 128 µg/mL); MIC (MDRSA 12.1): 366.4 µM (≈ 128 µg/mL); MIC [4, 9]: 366.4 µM (≈ 128 µg/mL); MIC [4, 10]: 366.4 µM (≈ 128 µg/mL) |
| NC(=O)c1c(F)ccc(OCCC2COc3cc4ccccc4cc3O2)c1F (stereo not drawn) [FZ95] |  |  |  |  |  |  |  | cytotoxicity towards human MRC-5 cells (human MRC-5 cells [7]): low to no cytotoxicity; MIC (B. subtilis): under 0.1 μg/mL; MIC [1]: 0.25 μg/mL and 0.6 μM; MIC [2]: 0.25 μg/mL and 0.6 μM |
| CC(COc1ccc(F)c(C(N)=O)c1F)C1COc2cc3c(cc2O1)CCCC3 (stereo not drawn) [FZ118, Erythro 3-(2-(5,6,7,8-Tetrahydro-1,4-naphthodioxan-2-yl)prop-1-yloxy)-2,6-difluorobenzamide] | < 0.24 µg/mL | < 0.6 µM | 9.9 µM (≈ 3.99 µg/mL) | 9.9 µM (≈ 3.99 µg/mL) | 9.9 µM (≈ 3.99 µg/mL) | 9.9 µM (≈ 3.99 µg/mL) | 471.0 µM | colony viability on solid medium, in words [3]: less effective |
| CC(Oc1ccc(F)c(C(N)=O)c1F)C1COc2ccccc2O1 (stereo not drawn) [FZ105, 3-[1-(1,4-benzodioxan-2yl)ethyl-1-oxy]-2,6-difluorobenzamide] |  |  | 191 µM (≈ 64 µg/mL) | 191 µM (≈ 64 µg/mL) | 191 µM (≈ 64 µg/mL) | 191 µM (≈ 64 µg/mL) |  |  |
| NC(=O)c1c(F)ccc(OC[C@H](O)[C@H]2COc3ccccc3O2)c1F (relative stereo) [FZ112] | 7.5 µg/mL | 21 µM | 364 µM (≈ 128 µg/mL) | 364 µM (≈ 128 µg/mL) | 364 µM (≈ 128 µg/mL) | 364 µM (≈ 128 µg/mL) |  | growth on solid medium at 6 µg/mL [3]: still permitted growth |
| NC(=O)c1c(F)ccc(OC[C@@H](O)[C@H]2COc3cc4c(cc3O2)CCCC4)c1F (relative stereo) [FZ117] | 0.94 µg/mL | 2.7 µM | 19.7 µM (≈ 7.99 µg/mL) | 19.7 µM (≈ 7.99 µg/mL) | 19.7 µM (≈ 7.99 µg/mL) | 19.7 µM (≈ 7.99 µg/mL) | 468.7 µM | colony viability on solid medium, in words [3]: less effective; FtsZ ring / GFP-ZapA pattern [8]: mixture of FtsZ speckles and Z rings |
